This is an account of results in patent US10617719B2, “Deep sea water extract and use thereof” (Taiwan DOW Biotech Co., Ltd., priority 2015, dated 2020).

The structures appear in SMILES notation.

The assay has as its system Helicobacter pylori. Put plainly: Inhibition of H. pylori growth on LB/sheep blood agar plates containing DSW extract. Format: cell-based, Helicobacter pylori (ten samples from different patients). Particulars: same concentration of magnesium ions as the DSW extract (MgCl2 285 and 570 mg/L). The text has this:
The present invention validates that the active components of the deep sea water extract having ability of inhibiting H. pylori growth are not associated with high magnesium, calcium ions and high hardness. […] Also, the present invention uses mass spectrometry to show a relational graph between the intensity value of the 1,070 component of the DSW extract and inhibiting H. pylori growth rate. In one embodiment, prepare the LB agar having the DSW extract with different hardness, the DSW extract with different concentration of EDTA or different concentration of MgCl2, follow by filtration through the 0.22 μm filter membrane or sterilization in an autoclave. Mix the LB agar with sheep blood, and pour the mixture into each 9-cm culture plate. Let each plate cool until its solid to form agar plate. For the LB agar having different concentration of MgCl2, take 2.85 mg MgCl2, add other nutrients and water to make 10 mL agar plate, the agar plate contains 285 mg/L MgCl2. According to above-mentioned procedure, the agar plats having different concentration of MgCl2 are 285 mg/L and 570 mg/L. The present invention also prepares the LB agar having the DSW extract with 1,200 ppm to 6,000 ppm and the 2,400 ppm DSW extract with different concentration of EDTA. The present invention identifies the active components of the DSW extract having the ability of inhibiting H. pylori growth. […]

For the compound `[Cl-].[Cl-].[Mg+2]` [magnesium ions, MgCl2], the “ability of inhibiting H. pylori growth” value is given as “does not have the ability of inhibiting H. pylori growth”.
